Results as given in PMC5567672 (Neuropharmacology, 2016).
Read-outs that look alike come from different tables or passages of the source.

Key:
[1] = tested on: rodents; details: ref Jenck et al., 1997, 2000; cited from earlier work
[2] = tested on: β-arrestin 2(−/−) mice; details: chronic treatment, various assays; ref David et al., 2009; cited from earlier work
[3] = tested on: β-arrestin 2(−/−) mice; details: ref Beaulieu et al., 2008, David et al., 2009; cited from earlier work
[4] = tested on: mice; assay: Elevated plus maze; format: in vivo, mouse; details: for EPM activity (Table 1 summary): in vivo, mice
[5] = tested on: NOP(+/+) mice; assay: Elevated plus maze; format: in vivo, mouse; details: Ro 65–6570 0.1 mg/kg, i.p.; 8–10 mice per group
[6] = tested on: NOP(−/−) mice; assay: Elevated plus maze; format: in vivo, mouse; details: Ro 65–6570 0.1 mg/kg, i.p.; 8–10 mice per group
[7] = tested on: mice; assay: Forced swim test; format: in vivo, mouse; details: for FST activity (Table 1 summary): in vivo, mice
[8] = tested on: mice
[9] = tested on: wild type mice; details: ref Beaulieu et al., 2008; cited from earlier work
[10] = molecular target: T1, NOP/G-protein interaction (NOP receptor) (Homo sapiens, UniProt P41146); format: biochemical
[11] = molecular target: T2, NOP/β-arrestin 2 interaction (NOP receptor) (Homo sapiens, UniProt P41146); assay: BRET assay, NOP/β-arrestin 2 interaction; format: cell-based; details: relative to N/OFQ
[12] = molecular target: T1, NOP/G-protein interaction (NOP receptor); details: 2015, cited from earlier work; for antagonism of N/OFQ effects, NOP/G protein / rank order of antagonist potency, NOP/G protein: against N/OFQ, ref Camarda et al., 2009, Malfacini et al.
[13] = molecular target: T2, NOP/β-arrestin 2 interaction (NOP receptor); details: ref Malfacini et al., 2015, cited from earlier work; for antagonism of N/OFQ stimulated NOP/β-arrestin 2 interaction: against N/OFQ
[14] = tested on: animals; details: ref Post et al. in press; cited from earlier work
[15] = tested on: patients; details: ref Post et al. in press; cited from earlier work

T2 sequence (P41146 whole entry): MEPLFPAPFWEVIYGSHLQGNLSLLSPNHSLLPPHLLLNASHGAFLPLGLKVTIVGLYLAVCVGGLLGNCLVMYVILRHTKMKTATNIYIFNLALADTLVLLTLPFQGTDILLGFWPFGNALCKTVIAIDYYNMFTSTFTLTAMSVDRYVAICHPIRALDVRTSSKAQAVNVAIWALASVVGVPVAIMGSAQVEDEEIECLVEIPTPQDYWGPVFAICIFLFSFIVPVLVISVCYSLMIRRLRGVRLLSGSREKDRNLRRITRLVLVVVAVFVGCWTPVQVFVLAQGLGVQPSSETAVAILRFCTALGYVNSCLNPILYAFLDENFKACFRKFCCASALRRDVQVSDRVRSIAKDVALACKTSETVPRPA
T1 sequence (P41146 whole entry): as above

Compound: O=C1NCN(c2ccccc2)C12CCN([C@@H]1CC[C@H]3CCCc4cccc1c43)CC2 [Ro64–6198]
- anxiolytic-like effects [1]: produce anxiolytic-like effects

Compound: CNCCC(Oc1ccc(C(F)(F)F)cc1)c1ccccc1 (stereo not shown) [fluoxetine]
- anxiolytic-like effects in β-arrestin 2(−/−) mice [2]: failed to induce anxiolytic-like effects
- antidepressant effects, tail suspension test [3]: did not evoke antidepressant effects

Compound: O=C1NCN(c2ccccc2)C12CCN(C1Cc3cccc4cccc1c34)CC2 (stereo not shown) [Ro 65–6570]
- time spent in and number of entries in the open arms ([4]; Ro 65–6570 0.01–0.1 mg/kg, i.p., 30 min prior, CD-1 mice, 12–16 per group): increased in a dose-dependent manner
- EPM activity (Table 1 summary) [4]: anxiolytic
- anxiolytic-like effect, NOP(+/+) mice [5]: evident in NOP(+/+)
- anxiolytic-like effect, NOP(−/−) mice [6]: not NOP(−/−) mice
- immobility time ([7]; Ro 65–6570 0.1 mg/kg, i.p., 30 min prior, CD-1 mice, 11–16 per group): had no effect
- FST activity (Table 1 summary) [7]: inactive
- motor impairment in the rotarod test ([8]; mouse, in vivo): did not produce any motor impairment

Compound: [Li] [lithium]
- antidepressant effects, tail suspension test [3]: did not evoke antidepressant effects
- latency to cross, light/dark test, wild type [9]: reduces the latency to cross in wild type

Compound: [Nphe 1, Arg 14, Lys 15]N/OFQ-NH 2 [UFP-101]
- stimulation of NOP/G-protein interaction (in words) [10]: inactive
- stimulation of NOP/β-arrestin 2 interaction (in words) [11]: inactive
- EPM activity (Table 1 summary) [4]: inactive
- FST activity (Table 1 summary) [7]: antidepressant
- antagonism of N/OFQ effects, NOP/G protein [12]: antagonized N/OFQ effects showing a competitive type of interaction
- rank order of antagonist potency, NOP/G protein [12]: SB-612111 > UFP-101
- antagonism of N/OFQ stimulated NOP/β-arrestin 2 interaction [13]: able to antagonize

Compound: CC(C)[C@H]1CC[C@@H](N2CCC(N3C(=O)C(=O)c4ccccc43)CC2)CC1 [AT-090, 1-(1-(cis-4-isopropylcyclohexyl)piperidin-4-yl)indoline-2,3-dione]
- motor impairment in the rotarod test ([8]; AT-090 at the higher dose tested, i.p., Fig. S1): did not evoke any motor impairment

Compound: Cc1cccc2c1CC[C@H](CN1CCC(c3c(Cl)cccc3Cl)CC1)C[C@@H]2O [SB-612111, (−)-cis-1-methyl-7-[[4-(2,6-dichlorophenyl)piperidin-1-yl]methyl]-6,7,8,9-tetrahydro-5H-benzocyclohepten-5-ol]
- behavior in the EPM, per se ([4]; SB-612111 10 mg/kg, i.p., 30 min, CD-1 mice, 10–12 per group): did not modify per se the mouse behavior
- block of the anxiolytic-like effects of Ro 65–6570 ([4]; SB-612111 10 mg/kg, i.p., 30 min pre-treatment, against Ro 65–6570 0.1 mg/kg i.p., CD-1 mice): completely block
- EPM activity (Table 1 summary) [4]: inactive
- FST activity (Table 1 summary) [7]: antidepressant
- antagonism of N/OFQ effects, NOP/G protein [12]: antagonized N/OFQ effects showing a competitive type of interaction
- rank order of antagonist potency, NOP/G protein [12]: SB-612111 > UFP-101
- pharmacological activity, G protein (Table 1 summary), previously obtained ([12]; in vitro, G protein, ref Malfacini et al.): antagonist
- antagonism of N/OFQ stimulated NOP/β-arrestin 2 interaction [13]: able to antagonize
- pharmacological activity, β-arrestin (Table 1 summary), previously obtained ([13]; in vitro, β-arrestin): antagonist

Compound: Cc1nn(-c2ncccc2CO)cc1CN1CCC2(CC1)OCC(F)(F)c1cc(Cl)sc12 [LY2940094]
- antidepressant effects, animals [14]: robust antidepressant effects
- antidepressant effects, patients [15]: robust antidepressant effects
